From patent US5789182A, “System for assaying binding to a heparin-binding growth factor receptor” (The Children's Medical Center Corporation, priority 1993, dated 1998)

Assays:
[1] = Degradation of bFGF in binding medium (gel electrophoresis, biological activity assay); assay type: physicochemical; conditions: aliquots at end of each experiment, with or without heparin
Excerpt: The heparin-dependent high-affinityreceptor binding was similar to that reported for non-heparin-dependent binding of bFGF to cells which naturally express both HSPG and high-affinity receptors for bFGF (Neufeld et al., J. Biol. Chem. 261:5631-5637, 1985).

[2] = tested on: serum-starved Balb/c fibroblasts; assay: Biological activity of iodinated bFGF; assay type: cell-based; conditions: ability to stimulate serum-starved Balb/c fibroblasts
Excerpt: Recombinant human bFGF was labeled with ^125 I (17 Ci/mg) (New England Nuclear, Boston, MA) using Iodo-beads (Pierce Chemical Co., Rockford, IL) according to the manufacturer's instructions. […] When subjected to SDS-PAGE, ^125 I-bFGF migrated as a single band in the same position as unlabeled bFGF.

[3] = tested on: cell surface heparin sulfate proteoglycans (low-affinity binding sites); assay: Low-affinity binding of 125I-bFGF to cells (1.6M NaCl extraction)
Method: (§1) Subconfluent cultures of about 2×10^5 cells in a 30 mm dish (Costar) were precooled to 4° C., washed twice with cold Dulbecco's modified Eagle's medium supplemented with 25 mM HEPES pH 7.5 and 1% bovine serum albumin (DMEM/BSA), and incubated for 2 hours at 4° C. with ^125 I-bFGF (50 μCi/ mmole) in DMEM/BSA at different concentrations and in the presence or absence of heparin, as determined by the experimental protocol. The binding medium was then discarded and the cells washed twice with ice cold PBS and twice with DMEM/BSA. To determine the amount of low-affinity-bound bFGF, the cells were incubated twice for 5 minutes with cold PBS, pH 7.5, containing 1.6M NaCl (low-affinity-bound bFGF could be totally removed using salt concentrations of 0.8M and higher--data not shown), and the radioactivity of the salt extraction solution assayed in a gamma counter. High-affinity-bound bFGF was determined by a 2M NaCl (pH 4.0) extraction (Moscatelli, J. Cell Biol. 107:753-759, 1988). Nonspecific binding was determined by including a 100-fold excess of unlabeled bFGF. After binding in the presence or absence of heparin, bFGF-receptor crosslinking with disuccinimidyl suberate (DSS) was performed as described (Yayon and Klagsbrun, Proc. Natl. Acad. Sci. USA 87:5346-5350, 1990). Briefly, cells were washed twice with PBS and then incubated with 0.15 mM DSS in PBS for 15 minutes at room temperature. The cells were then washed with a solution of 50 mM Tris, pH 7.4, and 100 mM glycine; and scraped and lysed in a small volume of lysis buffer containing 150 mM NaCl, 20 mM Tris pH 8.0, 1mM MgCl2, 0.1 mM ZnCl2, 0.5% NP-40 (Sigma), 1 μg aprotinin (Sigma), 1 μg/ml leupeptin (Sigma), and 2 mM PMSF (phenylmethylsulfonyl fluoride; Sigma). The cell lysate, cleared by spinning down nuclei and cell debris, was boiled and then electrophoresed under reducing conditions on a 7% SDS polyacrylamide gel. After drying the gel, an autoradiogram was prepared using Kodak X-Omat AR film (Eastman Kodak Co., Rochester, N.Y.).

[4] = tested on: high-affinity FGF receptors; assay: High-affinity binding of 125I-bFGF to untransfected CHO cells; conditions: untransfected wild-type and mutant CHO cells, compared to NIH-3T3 cells
Method: as §1, with “The cells were then washed with a solution of 50 mM Tris, pH 7.4, and 100 mM glycine; and scraped and lysed in a small volume of lysis buffer containing 150 mM NaCl, 20 mM Tris pH 8.0, 1mM MgCl2, 0.1 mM ZnCl2, 0.5% NP-40 (Sigma), 1 μg aprotinin (Sigma), 1 μg/ml leupeptin (Sigma), and 2 mM PMSF (phenylmethylsulfonyl fluoride; Sigma). The cell lysate, cleared by spinning down nuclei and cell debris, was boiled and then electrophoresed under reducing conditions on a 7% SDS polyacrylamide gel. After drying the gel, an autoradiogram was prepared using Kodak X-Omat AR film (Eastman Kodak Co., Rochester, N.Y.).” left out

[5] = tested on: mouse FGF receptor (mFR); assay: High-affinity receptor binding of 125I-bFGF to CHO cells transfected with mFR; conditions: for high-affinity binding of bFGF: no heparin
Excerpt: The following cell lines were used: Balb/c fibroblasts; NIH 3T3 cells; CHO K1 cells (parental wild-type CHO cells, available as ATCC Accession No. CCL 61); clones 803 and 677, each of which is a clone of glucuronosyltransferase-deficient CHO K1 cells which lack cell-surface HSPG (in addition, 677 cells overexpress the closely related GAG, chondroitin sulfate); and clone 606, HS-N-sulfotransferase-deficient CHO K1-derived cells which express normal levels of (but undersulfated) cell surface HSPG. The mutant clones 803, 677, and 606 were obtained from Dr. Jeffrey D. Esko. Wild-type and mutant CHO cells were routinely grown in Hams F12 medium supplemented with 10% bovine fetal calf serum and L-glutamine (Sigma). For transfection of the murine FGF receptor, approximately 4×10^7 cells were trypsinized, washed in ice cold PBS, and incubated with 50 μg Mo/mFR/SV and 8 μg of CMV B-gal (source; used as a control for transfection efficiency) for 10 min at 4° C. Electroporation was done in a Bio-Rad Gene Pulser at 960 uF and 300V. Cells were then plated in 3 cm, 6-well plates, medium was replaced after 24 hours, and b-gal and binding assays were performed 36 to 48 hours after electroporation. Routinely, 30 to 40% of the cells stained positive for b-gal.
as §1

[6] = tested on: FRAP (mouse bFGF receptor/alkaline phosphatase fusion); assay: Cell-free assay: 125I-bFGF binding to FRAP fusion protein, immunoprecipitated with AP-specific antibody
Method: Conditioned medium from FRAP-A2 was assayed for its ability to bind ^125 I-bFGF by combining in the presence or in the absence of a standard amount of heparin, an aliquot of conditioned medium with a standard amount of ^125 I-bFGF and a standard amount of monoclonal antibody specific for placental alkaline phosphatase (Medix Biotech, Foster City, Calif.) coupled to CNBr-activated sepharose beads (Pharmacia, Piscataway, N.J.). The mixture was incubated for 90 min at 4° C. and centrifuged to pellet the beads, which were then washed two times with 0.5 ml PBS and re-pelleted before determining the amount of bound ^125 I in a gamma counter. […] In the experiment illustrated in FIG. 13, varying amounts of FRAP-A2-conditioned medium were combined with heparin and ^125 I-bFGF, while in FIG. 14 the variable was the concentration of heparin in the assay mix.

[7] = tested on: mouse FGF receptor; assay: Chemical crosslinking of 125I-bFGF to mFR-transfected CHO cells (DSS); conditions: HS-deficient cells; unless heparin was included in the binding medium
Method: as §1, with “The cells were then washed with a solution of 50 mM Tris, pH 7.4, and 100 mM glycine; and scraped and lysed in a small volume of lysis buffer containing 150 mM NaCl, 20 mM Tris pH 8.0, 1mM MgCl2, 0.1 mM ZnCl2, 0.5% NP-40 (Sigma), 1 μg aprotinin (Sigma), 1 μg/ml leupeptin (Sigma), and 2 mM PMSF (phenylmethylsulfonyl fluoride; Sigma). The cell lysate, cleared by spinning down nuclei and cell debris, was boiled and then electrophoresed under reducing conditions on a 7% SDS polyacrylamide gel. After drying the gel, an autoradiogram was prepared using Kodak X-Omat AR film (Eastman Kodak Co., Rochester, N.Y.).” left out

[8] = tested on: endothelial cell migration; conditions: cited from earlier work
[9] = tested on: angiogenesis; conditions: associated with embryogenesis and inflammation; cited from earlier work

bFGF: recombinant human basic fibroblast growth factor, gift from Takeda Inc.
degradation of bFGF in binding medium [1]: no signs of degradation | biological activity after iodination [2]: Full biological activity | reduction of low-affinity binding of bFGF compared to wild-type CHO cells ([3]; CHO clone 606 (undersulfated HSPG)): more than 50% | low-affinity binding of bFGF ([3]; clone 677 cells (undetectable HSPG, overexpress chondroitin sulfate)): Absence of low-affinity bFGF binding | low-affinity binding of bFGF ([3]; clone 803 cells (5%-10% of wild-type HSPG)): did not bind significant amounts | low-affinity binding of bFGF ([3]; wild-type CHO K1 cells): comparable to that found for NIH-3T3 cells | high-affinity binding of bFGF [4]: very little high-affinity binding | character of bFGF-receptor binding ([5]; HS-deficient cells, 40 ng/ml heparin): specific, saturable, single class of high-affinity binding sites | competition of heparin-dependent high-affinity receptor binding of 125I-bFGF ([5]; excess of unlabeled bFGF): specifically competed out | high-affinity binding of bFGF ([5]; mFR-transfected HS-deficient mutants): none of the similarly transfected HS-deficient mutants showed significant high-affinity binding | high-affinity binding of bFGF ([5]; wild-type CHO K1 cells transfected with Mo/mFR/SV): high levels of high-affinity binding | bound 125I with increasing concentrations of unlabelled FGF ([6]; competition assay (FIG. 12)): decrease | binding of labelled bFGF to fusion protein ([6]; presence vs absence of heparin or a heparin-like molecule): in the presence but not in the absence | crosslinking of bFGF to high-affinity receptors [7]: could not be crosslinked

^125 I-bFGF: recombinant human bFGF labeled with 125I using Iodo-beads [reference compound]
125I-bFGF bound relative to untransfected cells ([5]; wild-type CHO cells transiently transfected with mFR): 8-10 fold

Protamine
effect on heparin-stimulated endothelial cell migration [8]: inhibits the ability of heparin to stimulate endothelial cell migration | effect on angiogenesis [9]: inhibits angiogenesis
